Test results taken from patent EP4382122A1, “PEPTIDE COMPLEX IPF-H2A FOR MODULATION IMMUNE FUNCTION OF THE HUMAN BODY” (Zhabilov, Harry H., priority 2022, dated 2024).
Read-outs that look alike come from different tables or passages of the source.

Tests used:
HCoV-229E [1] = assay type: cell-based, human coronavirus HCoV-229E
[2] = tested on: human embryonic lung (Lep) cell line; test: Cytotoxicity on Lep cells, MTT test; set-up: CD50: unit not given beside the values
[3] = tested on: human embryonic lung (Lep) cell line; test: Cytotoxicity on Lep cells, microscopic surveillance of cell monolayer morphology; conditions: 96 hours
Procedure: As a model system is used monolayer of human embryonic lung (Lep) cell line. The cells are cultivated in DMEM with added thermally inactivated 10% FBS, 1% Sodium pyruvate (Sigma-Aldrich, Germany) and antibiotics (penicillin- 100 U/ml), streptomycin sulphate (100 µg/ml) (growth medium) and the cell cultures are incubated at 37°C in 5% CO2 and in the presence of the required humidity.
MTT analysis of the cell survival and proliferation was performed in a wide range of concentrations of the tested substance. […] The test substance is applied in concentration range 0.0001- 1 mg/ml, while the anti-nfluenza medicine Tamiflu® - 0.001- 7.5 mg/ml for 96 hours. The untreated Lep cells whose survival was accepted as 100%, were used as a negative control. […] The analysis of the cell morphology surveillance is synchronized with the MTT analysis of the cell surveillance.

HCoV-229E [4] = assay type: cell-based, human coronavirus HCoV-229E; conditions: for Δlog10: HCoV-229E, vs virus control
HSV-1 (Victoria strain) [5] = test: CPE inhibition test with MTT Assay, HSV-1 in Vero cells; assay type: cell-based, Herpes Simplex virus type 1 (HSV-1)
HSV-1/HSV-2 [6] = test: Infectious viral yield, HSV-1/HSV-2 in Vero cells (text, type not separated); assay type: cell-based
HSV-2 (Bja strain) = test: Infectious viral yield of HSV-2 in Vero cells (Reed and Muench titration)
Procedure: (§1) Viral strains were cultured in DMEM nutrient medium containing 2% FBS,1% antibiotic solution (100 U/ml penicillin G sodium and 100 µg/ml streptomycin sulphate).
(§2) Infectious virus titer was account for, also by Reed and Muench's method of final dilutions, and expressed as TCID50 (50% Tissue Culture Infectious Dose) and also quantitatively through the colorimetric MTT method. After triple freezing and thawing, the resulting virus- containing was centrifuged (2500 rpm/min, 15 min at 4 °C), aliquoted and frozen at -80°C.
(§3) Immediately prior to work, ten-fold logarithmic dilutions of the relevant virus strain were prepared in DMEM nutrient medium containing 2% FBS, 1% antibiotic solution (100 U/mL penicillin G sodium and 100 µg/mL streptomycin sulphate). When the cell monolayer reached between 70- 80% confluence (concentration 5 × 10^3 cells/well, usually after 24 h), the nutrient medium was removed from the wells. The cell monolayer was infected with the prepared viral dilutions of 0.1 mL. With each viral dilution, 4 wells were infected. The virus was adsorbed for 1 h ina thermostat at a temperature of 37°C, then to each well was added 0.1 mL of nutrient medium. Four wells containing uninfected cells were used for cell control. Thus treated plate was incubated in a thermostat at a temperature of 37°C and at the required humidity. In the event of a cytopathic effect (CPE) (appearance of round cells, unevenly disseminated in the cell monolayer, with a tendency to formfoci), it was waited until the development of 2-3 + (50 - 75% of the cell monolayer) or until it stopped progressing. The viral infection titer is expressed as TCID50 (50% Tissue Culture Infectious Dose). The presence or absence of a viral cytopathic effect is determined by the following formula: T = (logofdilution,where%infectedisover50%) + (proportionalityfactor×logofdilutionfactor). […] Proportionality factor = [(%infectedover50%)−50%][(%infectedover50%)−(% infected below; 50%)].
(§4) Extracellular virus samples were titrated in a 24-hour Vero monolayer in 96-well plates, by taking into account the infectious viral titer in log10, according to the final dilution method of Reed & Muenh. Differences in infectious viral titers between experimental and control samples are expressed as Δlog. Based on the reported results, dose-response graphs were plotted and minimum inhibitory concentrations 50 (MIC50) were determined. Values of Δlog10 ≥ 1 are considered to be reliable results for the performed tests.

Vero cells [7] = test: Cytotoxicity on Vero cells, MTT Assay; conditions: 72 h
Procedure: Using the solution, a series of dilutions are done ex tempore with a nutrient medium DMEM (Dulbecco's Modified Eagle Medium, Sigma-Aldrich, Germany), which includes 2% fetal bovine serum (FBS, Gibco) and 1% antibiotic solution (100 U/ml penicillin and 100 µg/ml streptomycin sulphate (Gibco, USA)) (working solutions), which solutions are then filtered through sterile antibacterial filters with a pore diameter of 0.45 µm. As a model system in the tests was used a kidney monolayer cell line of African Green Monkey (Cercopithecus aethiops).
Cells were cultured on DMEM nutrient medium with termoinactivated 10% FBS, 1% sodium pyruvate (Sigma- Aldrich, Germany) and antibiotics (penicillin (100 U/ml), streptomycin sulphate (100 µg/ml) (growingmedium). The cell cultures were incubated at 37 °C at 5% CO2 and the required humidity. The blending of the Vero cells was done at 1:3 - 1:5 at a density of about 2 × 10^5 cells/ml, then resuspended several times and transferred onto cell culture mattresses (25 cm^2). Before inoculating the cells with virus and/or IPF-H2A dilutions, the monolayer was washed three times with phosphate-buffered saline (PBS) with pH 7.4 for 1- 2 minutes, after which the solution was removed. All experiments were performed during the exponential phase of cell growth. […]

Vero cells [8] = test: Cytotoxicity on Vero cells, microscopic observation of cell monolayer morphology; conditions: 72 h
Procedure: For analysis of the anti-proliferative and potentially antiviral properties of the IPF-H2A complex, according to the present invention, in cell culture, IPF-H2A was dissolved to an initial concentration of 50 mg/ml (background solution). Using the solution, a series of dilutions are done ex tempore with a nutrient medium DMEM (Dulbecco's Modified Eagle Medium, Sigma-Aldrich, Germany), which includes 2% fetal bovine serum (FBS, Gibco) and 1% antibiotic solution (100 U/ml penicillin and 100 µg/ml streptomycin sulphate (Gibco, USA)) (working solutions), which solutions are then filtered through sterile antibacterial filters with a pore diameter of 0.45 µm. As a model system in the tests was used a kidney monolayer cell line of African Green Monkey (Cercopithecus aethiops). […]

HSV-1 (Victoria strain) [9] = test: Infectious viral yield of HSV-1 in Vero cells (Reed and Muench titration)
Procedure: as §1, §2, §3, §4

HSV-1/HSV-2 [10] = test: CPE inhibition test, microscopic, HSV-1/HSV-2 in Vero cells (type not separated); assay type: cell-based; conditions: infected Vero cells, at MNC, 72 hours of treatment
Procedure: Dose-dependent curves were derived to determine the inhibitory concentration leading to 50% inhibition of the viral cytopathic effect (IC50).
Initially, the antiviral activity of the IPF test substance was assessed by a CPE inhibition test. […] Cell cultures were observed daily under a light microscope as to theCPE development. […] The results of the experiments were evaluated on the basis of comparison with virus-free and no-added cells (cell control),and with cells infected with HSV-1/HSV-2 without substance addition (viral control).

In the case of CCOC(=O)C1=C[C@@H](OC(CC)CC)[C@H](NC(C)=O)[C@@H](N)C1 [Tamiflu, oseltamivir phosphate], the “inhibition of CPE of HCoV-229E” value (HCoV-229E [1]) is reported as “Less expressed CPE inhibition”, the CD50 ([2]; 96 hours, MTT test) is reported as 2.5 ±0.06 and the MNC ([2]; 96 hours, MTT test) is reported as 0.005 ± 0.15 mg/mL. For the same compound, the “toxicity relative to IPF-H2A peptide complex” value ([2]; comparison of cell survival data) was “twentyfold more toxic”, the CD50 [3] was 2.5 ±0.02 and the MNC [3] was 0.001 ± 0.6 mg/mL. The “concentration range that effectively inhibits the infectious viral yield / replication” value (HCoV-229E [4]) was 0.00001 to 1 mg/mL, the Δlog10 (HCoV-229E [4]; concentration 0.0001 mg/ml) was 0.8 and the Δlog10 (HCoV-229E [4]; concentration 0.001 mg/ml) was 1.3. It also gave a Δlog10 (HCoV-229E [4]; concentration 0.01 mg/ml) of 1.3, a Δlog10 (HCoV-229E [4]; concentration 0.1 mg/ml) of 1.3 and a Δlog10 (HCoV-229E [4]; concentration 1.0 mg/ml) of 1.8.
In the case of Nc1nc2c(ncn2COCCO)c(=O)[nH]1 [ACV, 2-amino-1,9-dihydro-9-((2-hydroxyethoxy)methyl)-6H-purin-6-one], the “% cellular protection at MNC” value (HSV-1 (Victoria strain) [5]; HSV-1 (Victoria strain), Vero cells, MTT Assay) is reported as 100%, the protection (HSV-1 (Victoria strain) [5]; HSV-1 strain Victoria, concentration range of 0.0005- 0.01 mg/mL) is reported as 100% and the “concentration range that effectively inhibits the yield of infectious viral progeny / replication” value (HSV-1/HSV-2 [6]) is reported as 0.00001 to 1 mg/mL. For the same compound, the “Viral yield (log10 TCID50)” value (HSV-2 (Bja strain); concentration 0.0005 mg/mL) was 5.567 ± 0.000 log10 TCID50, the “Viral yield (log10 TCID50)” value (HSV-2 (Bja strain); concentration 0.005 mg/mL) was 5.300 ± 0.288 log10 TCID50 and the Δlog10 (HSV-2 (Bja strain); concentration 0.005 mg/mL) was 0.8. For the same compound, the “Viral yield (log10 TCID50)” value (HSV-2 (Bja strain); concentration 0.05 mg/mL) was 4.500 ± 0.125 log10 TCID50, the Δlog10 (HSV-2 (Bja strain); concentration 0.05 mg/mL) was 1.0 and the “Viral yield (log10 TCID50)” value (HSV-2 (Bja strain); concentration 0.1 mg/mL) was 4.300 ± 0.237 log10 TCID50. For the same compound, the Δlog10 (HSV-2 (Bja strain); concentration 0.1 mg/mL) was 1.0, the “Viral yield (log10 TCID50)” value (HSV-2 (Bja strain); concentration 1 mg/mL) was 4.005 ± 0.166 log10 TCID50 and the Δlog10 (HSV-2 (Bja strain); concentration 1 mg/mL) was 1.3. For the same compound, the CD50 (Vero cells [7]) was 0.5 ± 0.1 mg/mL, the CD50 (Vero cells [8]) was 0.5 ± 0.02 mg/mL and the “Viral yield (log10 TCID50)” value (HSV-1 (Victoria strain) [9]; concentration 0.0005 mg/mL) was 4.500 ± 0.763 log10 TCID50. The Δlog10 (HSV-1 (Victoria strain) [9]; concentration 0.0005 mg/mL) was 0.8, the “Viral yield (log10 TCID50)” value (HSV-1 (Victoria strain) [9]; concentration 0.005 mg/mL) was 4.530 ± 0.166 log10 TCID50 and the Δlog10 (HSV-1 (Victoria strain) [9]; concentration 0.005 mg/mL) was 0.8. The “Viral yield (log10 TCID50)” value (HSV-1 (Victoria strain) [9]; concentration 0.05 mg/mL) was 4.300 ± 0.763 log10 TCID50, the Δlog10 (HSV-1 (Victoria strain) [9]; concentration 0.05 mg/mL) was 1.0 and the “Viral yield (log10 TCID50)” value (HSV-1 (Victoria strain) [9]; concentration 0.1 mg/mL) was 4.000 ± 0.288 log10 TCID50. For the same compound, the Δlog10 (HSV-1 (Victoria strain) [9]; concentration 0.1 mg/mL) was 1.6, the “Viral yield (log10 TCID50)” value (HSV-1 (Victoria strain) [9]; concentration 1 mg/mL) was 2.7 ± 0.500 log10 TCID50 and the Δlog10 (HSV-1 (Victoria strain) [9]; concentration 1 mg/mL) was 2.6. For the same compound, the “CPE suppression of HSV-1/HSV-2” value (HSV-1/HSV-2 [10]) was “less pronounced CPE inhibitory effect”.
